Experimental data published in patent publication US7605156B2, “Methods for the use of inhibitors of cytosolic phospholipase A2” (Wyeth, priority 2001, dated 2009).

Molecular target: T1, cPLA2 (Homo sapiens, UniProt P47712)
T1 sequence (P47712 1-749): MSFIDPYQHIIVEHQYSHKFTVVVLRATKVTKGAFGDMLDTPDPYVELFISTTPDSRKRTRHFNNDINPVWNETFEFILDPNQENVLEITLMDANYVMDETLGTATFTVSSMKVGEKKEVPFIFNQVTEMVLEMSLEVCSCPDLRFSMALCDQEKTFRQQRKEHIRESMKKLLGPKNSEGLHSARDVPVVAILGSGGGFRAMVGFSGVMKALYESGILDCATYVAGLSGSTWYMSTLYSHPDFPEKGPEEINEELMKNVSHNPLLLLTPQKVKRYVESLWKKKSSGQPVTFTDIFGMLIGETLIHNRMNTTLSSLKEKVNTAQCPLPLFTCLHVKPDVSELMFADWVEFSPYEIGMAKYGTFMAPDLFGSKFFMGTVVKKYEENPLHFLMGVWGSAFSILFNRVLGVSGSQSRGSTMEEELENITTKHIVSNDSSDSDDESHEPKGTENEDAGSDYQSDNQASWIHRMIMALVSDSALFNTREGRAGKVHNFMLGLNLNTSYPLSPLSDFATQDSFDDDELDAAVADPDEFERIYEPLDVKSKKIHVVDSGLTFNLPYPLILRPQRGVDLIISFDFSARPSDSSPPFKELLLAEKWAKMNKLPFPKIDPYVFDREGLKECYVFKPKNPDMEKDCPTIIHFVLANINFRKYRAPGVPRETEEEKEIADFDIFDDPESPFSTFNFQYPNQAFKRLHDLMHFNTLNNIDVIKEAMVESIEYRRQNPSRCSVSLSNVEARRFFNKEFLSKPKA
Assay: Coumarine assay (hydrolysis of 7-hydroxycoumarinyl 6-heptenoate)
Assay type: biochemical
Conditions: 60 μM 7-hydroxycoumarinyl 6-heptenoate, pH 7.5; read-out: Coumarin IC50

Row | IC50 | SMILES
1 | 110 nM | CCc1cccc(CC)c1S(=O)(=O)NCCc1c(CCCc2ccc(C(=O)O)cc2)c2cc(Cl)ccc2n1C(c1ccccc1)c1ccccc1 [Example 273, 4-{3-[1-benzhydryl-5-chloro-2-(2-{[(2,6-diethylphenyl)sulfonyl]amino}ethyl)-1H-indol-3-yl]propyl}benzoic acid]
2 | 400 nM | O=C(O)c1ccc(CCCc2c(CCNS(=O)(=O)c3ccccc3[N+](=O)[O-])n(C(c3ccccc3)c3ccccc3)c3ccc(Cl)cc23)cc1 [Example 264, 4-{3-[1-benzhydryl-5-chloro-2-(2-{[(2-nitrophenyl)sulfonyl]amino}ethyl)-1H-indol-3-yl]propyl}benzoic acid]
3 | 200 nM | CC(C)(C)c1ccccc1S(=O)(=O)NCCc1c(CCOc2ccc(C(=O)O)cc2)c2cc(Cl)ccc2n1C(c1ccccc1)c1ccccc1 [Example 237, 4-{2-[1-benzhydryl-2-(2-{[(2-tert-butylphenyl)sulfonyl]amino}ethyl)-5-chloro-1H-indol-3-yl]ethoxy}benzoic acid]
4 | 460 nM | O=C(O)c1ccc(OCCc2c(CCNS(=O)(=O)c3cc(Cl)c(F)cc3F)n(C(c3ccccc3)c3ccccc3)c3ccc(Cl)cc23)cc1 [Example 169, 4-{2-[1-Benzhydryl-5-chloro-2-(2-{[(5-chloro-2,4-difluorophenyl)sulfonyl]amino}ethyl)-1H-indol-3-yl]ethoxy}benzoic acid]
5 | 500 nM | O=C(O)c1ccc(OCCc2c(CCNS(=O)(=O)CSc3ccc(F)c(Cl)c3)n(C(c3ccccc3)c3ccccc3)c3ccc(Cl)cc23)cc1 [Example 221, 4-[2-(1-benzhydryl-5-chloro-2-{2-[({[(3-chloro-4-fluorophenyl)thio]methyl}sulfonyl)amino]ethyl}-1H-indol-3-yl)ethoxy]benzoic acid]
6 | 140 nM | Cc1cccc(C)c1S(=O)(=O)NCCc1c(CCCc2ccc(C(=O)O)cc2)c2cc(Cl)ccc2n1C(c1ccccc1)c1ccccc1 [Example 270, 4-(3-[1-benzhydryl-5-chloro-2-(2-{[(2,6-dimethylphenyl)sulfonyl]amino}ethyl)-1H-indol-3-yl]propyl}benzoic acid]

The remaining lines, values behind:

Row | SMILES | IC50
7 | O=C(O)c1ccc(OCCc2c(CCNS(=O)(=O)c3c(F)cccc3C(F)(F)F)n(C(c3ccccc3)c3ccccc3)c3ccc(Cl)cc23)cc1 [Example 269] | 150 nM
8 | Cc1ccccc1S(=O)(=O)NCCc1c(CCOc2ccc(C(=O)O)cc2)c2cc(Cl)ccc2n1C(c1ccccc1)c1ccccc1 [Example 233, 4-{2-[1-benzhydryl-5-chloro-2-(2-{[(2-methylphenyl)sulfonyl]amino}ethyl)-1H-indol-3-yl]ethoxy}benzoic acid] | 340 nM
9 | Cc1ccc(S(=O)(=O)NCCc2c(CCCc3ccc(C(=O)O)cc3)c3cc(Cl)ccc3n2C(c2ccccc2)c2ccccc2)cc1Cl [Example 261, 4-{3-[1-benzhydryl-5-chloro-2-(2-([(3-chloro-4-methylphenyl)sulfonyl]amino}ethyl)-1H-indol-3-yl]propyl}benzoic acid] | 250 nM
10 | O=C(O)c1ccc(CCCc2c(CCNS(=O)(=O)c3cccc(-c4ccccc4)c3)n(C(c3ccccc3)c3ccccc3)c3ccc(Cl)cc23)cc1 [Example 206, 4-[3-(1-benzhydryl-2-{-2-[-(1,1′-biphenyl-3-ylsulfonyl)amino]ethyl}-5-chloro-1H-indol-3-yl)propyl]benzoic acid] | 500 nM
11 | COc1ccccc1S(=O)(=O)NCCc1c(CCCc2ccc(C(=O)O)cc2)c2cc(Cl)ccc2n1C(c1ccccc1)c1ccccc1 [Example 234, 4-{3-[1-Benzhydryl-5-chloro-2-(2-{[(2-methoxyphenyl)sulfonyl]amino}ethyl)-1H-indol-3-yl]propyl}benzoic acid] | 230 nM
12 | O=S(=O)(NCCc1c(CCOc2ccc(-c3nn[nH]n3)cc2)c2cc(Cl)ccc2n1C(c1ccccc1)c1ccccc1)c1ccccc1Cl [Example 193, N-[2-(1-benzhydryl-5-chloro-3-{2-[4-(2H-tetrazol-5-yl)-phenoxy]-ethyl}-1H-indol-2-yl)-ethyl]-2-chlorobenzenesulfonamide] | 1800 nM
